Laboratory results reported in US5691373A, “Nonpeptide endothelin antagonists I” (Warner-Lambert Company, priority 1995, dated 1997).
Read-outs that look alike come from different tables or passages of the source.

How the values were obtained:
ETA [1] = molecular target: T1, ETA (Oryctolagus cuniculus, UniProt A5A8K3); experiment: VERA-A: antagonism of ET-1 stimulated vasoconstriction in the rabbit femoral artery (ETA); type: cell-based; settings: ET-1, rabbit femoral artery; read-out: VERA-A pA2 (converted)
T1 sequence (A5A8K3 21-427): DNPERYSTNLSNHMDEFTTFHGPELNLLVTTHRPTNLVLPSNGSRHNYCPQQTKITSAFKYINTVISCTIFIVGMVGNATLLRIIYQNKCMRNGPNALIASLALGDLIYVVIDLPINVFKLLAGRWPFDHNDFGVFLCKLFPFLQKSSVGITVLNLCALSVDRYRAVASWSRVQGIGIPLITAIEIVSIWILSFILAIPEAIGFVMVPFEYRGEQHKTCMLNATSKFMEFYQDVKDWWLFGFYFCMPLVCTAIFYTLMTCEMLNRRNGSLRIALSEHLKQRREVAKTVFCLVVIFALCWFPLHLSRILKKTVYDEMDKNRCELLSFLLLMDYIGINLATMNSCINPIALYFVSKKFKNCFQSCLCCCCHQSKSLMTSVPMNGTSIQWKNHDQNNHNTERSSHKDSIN
Protocol: Male New Zealand rabbits were killed by cervical dislocation and exsanguination. Femoral and pulmonary arteries were isolated, cleaned of connective tissue, and cut into 4-mm rings. The endothelium was denuded by placing the rings over hypodermic tubing (32 gauge for femoral rings and 28 gauge for pulmonary rings, Small Parts, Inc, Miami, Fla.) and gently rolling them. […] Resting tension was adjusted to 3.0 g for femoral and 4.0 g pulmonary arteries; the rings were left for 90 minutes to equilibrate.

ETB = molecular target: T2, ETB (Rattus norvegicus, UniProt P21451)
T2 sequence (P21451 27-442): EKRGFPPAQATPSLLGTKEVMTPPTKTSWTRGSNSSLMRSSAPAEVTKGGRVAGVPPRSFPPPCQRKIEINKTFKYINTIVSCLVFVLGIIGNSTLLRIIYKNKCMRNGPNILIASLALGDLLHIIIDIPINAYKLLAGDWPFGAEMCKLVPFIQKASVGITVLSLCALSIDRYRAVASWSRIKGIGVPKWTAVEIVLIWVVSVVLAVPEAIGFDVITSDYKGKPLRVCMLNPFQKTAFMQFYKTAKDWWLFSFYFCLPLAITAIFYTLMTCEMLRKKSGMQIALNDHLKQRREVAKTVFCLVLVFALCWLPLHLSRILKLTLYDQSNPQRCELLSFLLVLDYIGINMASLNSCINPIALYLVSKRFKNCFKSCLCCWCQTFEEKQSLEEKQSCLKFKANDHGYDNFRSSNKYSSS

ETA [2] = molecular target: T1, ETA
human ETB receptor = molecular target: T3, human ETB receptor (Homo sapiens, UniProt P24530); experiment: ERBA-B: [125I]-ET-1 binding, recombinant human ETB receptor expressed in CHO-K1 cells; settings: human cloned ETB receptor, read-out: ERBA-B IC50, human cloned receptor data
T3 construct: expressed in transfected cells; host or cells: CHO-K1 cells, pRc-CMW (so in the source) expression vector, electroporation; membranes used
T3 sequence (P24530 27-442): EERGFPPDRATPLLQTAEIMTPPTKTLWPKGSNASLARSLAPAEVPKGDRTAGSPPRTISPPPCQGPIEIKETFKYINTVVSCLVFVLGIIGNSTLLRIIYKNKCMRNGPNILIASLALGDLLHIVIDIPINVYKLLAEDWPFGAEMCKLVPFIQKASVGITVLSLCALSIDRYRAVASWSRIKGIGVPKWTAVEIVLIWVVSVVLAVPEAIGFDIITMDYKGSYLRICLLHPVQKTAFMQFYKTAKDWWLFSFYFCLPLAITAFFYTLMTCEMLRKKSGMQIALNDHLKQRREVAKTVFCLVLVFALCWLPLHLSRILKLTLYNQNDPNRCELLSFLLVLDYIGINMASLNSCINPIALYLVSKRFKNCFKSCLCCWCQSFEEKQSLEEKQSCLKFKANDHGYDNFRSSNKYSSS

[3] = ERBA-A IC50, [125I]-ET-1, rabbit renal artery vascular smooth muscle cells

| Structure (SMILES) | Kb (ETA [1]) | IC50 (ETB) | IC50 (ETA [2]; [3]) | IC50 (ETB; read-out: ERBA-B IC50, [125I]-ET-1, rat cerebellar membranes) | IC50 (ETA [2]; read-out: ERBA-A IC50, [125I]-ET-1, rabbit renal artery vascular smooth muscle cells) | IC50 (human ETB receptor) |
| --- | --- | --- | --- | --- | --- | --- |
| COc1ccc(C(=O)/C(Cc2ccccc2OC)=C(\C(=O)O)c2ccc3c(c2)OCO3)cc1 | 251 nM |  |  |  |  |  |
| O=C1OC(O)(c2ccc(Cl)cc2)C(Cc2ccsc2)=C1c1ccc2c(c1)OCO2 (stereo not shown) [Example 48, 2(5H)-Furanone, 3-(1,3-benzodioxol-5-yl)-5-(4-chlorophenyl)-5-hydroxy-4-(3-thienylmethyl)-] |  | 6200 nM | 1200 nM |  |  |  |
| O=C1OC(O)(c2ccc(Cl)cc2)C(Cc2cccc(Cl)c2)=C1c1ccc2c(c1)OCO2 (stereo not shown) [Example 74, 2(5H)-Furanone, 3-(1,3-benzodioxol-5)-5-(4-chlorophenyl)-4-[(3-chlorophenyl)methyl]-5-hydroxy] |  |  |  | 12000 nM | 2500 nM |  |
| COc1ccc(C2(O)OC(=O)C(c3ccc4c(c3)OCO4)=C2Cc2ccc(Cl)c(Cl)c2)cc1 (stereo not shown) [Example 78, 3-Benzo[1,3]dioxol-5-yl-4-(3,4-dichlorobenzyl)-5-hydroxy-5-(4-methoxyphenyl)-5H-furan-2-one] |  | 890 nM | 240 nM |  |  |  |
| COc1ccc(C2(O)OC(=O)C(c3ccc4c(c3)OCO4)=C2Cc2ccc(C(C)(C)C)cc2)cc1 (stereo not shown) [Example 79, 3-Benzo[1,3]dioxol-5-yl-4-(4-tert-butylbenzyl)-5-hydroxy-5-(4-methoxyphenyl)-5H-furan-2-one] |  | 520 nM | 84 nM |  |  |  |
| COc1ccc(C2(O)OC(=O)C(c3ccc4c(c3)OCO4)=C2Cc2ccc(NC(C)=O)cc2)cc1 (stereo not shown) [Example 80, N-{4-[4-Benzo[1,3]dioxol-5-yl-2-hydroxy-2-(4-methoxyphenyl)-5-oxo-2,5-dihydro-furan-3-ylmethyl]-phenyl}-acetamide] | 63.1 nM |  | 1.4 nM |  |  | 880 nM |
| COc1ccc(C2(O)OC(=O)C(c3ccc4c(c3)OCO4)=C2Cc2ccc(Br)cc2)cc1 (stereo not shown) [Example 83, 3-Benzo[1,3]dioxol-5-yl-4-(4-bromobenzyl)-5-hydroxy-5-(4-methoxyphenyl)-5H-furan-2-one] |  | 500 nM | 71 nM |  |  |  |
| COc1ccc(C2(O)OC(=O)C(c3ccc4c(c3)OCO4)=C2Cc2ccc(OC(C)C)cc2)cc1 (stereo not shown) [Example 84, 3-Benzo[1,3]dioxol-5-yl-5-hydroxy-4-(isopropoxybenzyl)-5-(4-methoxyphenyl)-5H-furan-2-one] | 158 nM |  | 3.3 nM |  |  | 1400 nM |
| COc1ccc(C2(O)OC(=O)C(c3ccc4c(c3)OCO4)=C2Cc2ccc(OC)c(Cl)c2)cc1 (stereo not shown) [Example 92, 3-Benzo[1,3]dioxol-5-yl-4-(3-chloro-4-methoxybenzyl)-5-hydroxy-5-(4-methoxyphenyl)-5H-furan-2-one] | 251 nM |  | 4 nM |  |  | 1400 nM |
| CCCCOc1ccc(CC2=C(c3ccc4c(c3)OCO4)C(=O)OC2(O)c2ccc(OC)cc2)cc1 (stereo not shown) [Example 93, 3-Benzo[1,3]dioxol-5-yl-4-(4-butoxybenzyl)-5-hydroxy-5-(4-methoxyphenyl)-5H -furan-2-one] | 1000 nM |  | 5.2 nM |  |  | 220 nM |
| CC(C)c1ccc(CC2=C(c3ccc(Cl)c(Cl)c3)C(=O)OC2(O)c2ccc(Cl)cc2)cc1 (stereo not shown) [Example 118, 5-(4-Chlorophenyl)-3-(3,4-dichlorophenyl)-5-hydroxy-4-(4-isopropylbenzyl)-5 H-furan-2-one] |  | 13000 nM | 540 nM |  |  |  |
| CN(C)c1ccc(CC2=C(c3ccc(Cl)c(Cl)c3)C(=O)OC2(O)c2ccc(Cl)cc2)cc1 (stereo not shown) [Example 119, 5-(4-Chlorophenyl)-3-(3,4-dichlorophenyl)-4-(4-dimethylaminobenzyl)-5-hydroxy-5H-furan-2-one] |  | 4100 nM | 5800 nM |  |  |  |
| COc1ccc(C2(O)OC(=O)C(c3cc(OC)cc(OC)c3)=C2Cc2ccccc2)cc1 (stereo not shown) [Example 125, 4-Benzyl-3-(3,5-dimethoxyphenyl)-5-hydroxy-5-(4-methoxyphenyl)-5H-furan-2-one] |  | 200 nM | 29 nM |  |  |  |
| COc1ccc(CC2=C(c3cc(OC)cc(OC)c3)C(=O)OC2(O)c2ccc(OC)cc2)cc1 (stereo not shown) [Example 131, 3-(3,5-Dimethoxyphenyl)-5-hydroxy-4-(4-methoxybenzyl)-5-(4-methoxyphenyl)-5H-furan-2-one] | 501 nM |  | 15 nM |  |  | 1350 nM |
| COc1ccc(C2(O)OC(=O)C(c3cc(OC)cc(OC)c3)=C2Cc2cccc(C=O)c2)cc1 (stereo not shown) [Example 134, 3-[4-(3,5-Dimethoxyphenyl)-2-hydroxy-2-(4-methoxyphenyl)-5-oxo-2,5-dihydrof uran-3-ylmethyl]benzaldehyde] |  | 1200 nM | 24 nM |  |  |  |
| COc1ccc(C2(O)OC(=O)C(c3cccc(OC)c3)=C2Cc2ccccc2)cc1 (stereo not shown) [Example 153, 4-Benzyl-5-hydroxy-5-(4-methoxyphenyl)-3-(3-methoxyphenyl)-5H-furan-2-one] |  | 2000 nM | 360 nM |  |  |  |
| CCCOc1cccc(CC2=C(c3cccc(OC)c3)C(=O)OC2(O)c2ccc(OC)cc2)c1 (stereo not shown) [Example 154, 5-Hydroxy-5-(4-methoxyphenyl)-3-(3-methoxyphenyl)-4-(3-propoxybenzyl)-5H-fu ran-2-one] |  | 2100 nM | 100 nM |  |  |  |
| O=C1OC(O)(c2c(F)cccc2F)C(Cc2ccccc2)=C1c1ccc2c(c1)OCO2 (stereo not shown) [Example 158, 3-Benzo[1,3]dioxol-5-yl-4-benzyl-5-(2,6-difluorophenyl)-5-hydroxy-5H-furan-2-one] |  | 21000 nM | 2300 nM |  |  |  |
| C=CCOc1cc(CC2=C(c3ccc4c(c3)OCO4)C(=O)OC2(O)c2ccc(OC)cc2)ccc1OC (stereo not shown) [Example 163, 4-(3-Allyloxy-4-methoxybenzyl)-3-benzo[1,3]dioxol-5-yl-5-hydroxy-5-(4-methoxyphenyl)-5H-furan-2-one] | 126 nM |  | 20 nM |  |  | 880 nM |
| COc1ccc(C2(O)OC(=O)C(c3cn(C)c4ccccc34)=C2Cc2ccccc2)cc1 (stereo not shown) [Example 170] |  | 900 nM | 1300 nM |  |  |  |
| Cc1ccccc1C1(O)OC(=O)C(c2ccc3c(c2)OCO3)=C1Cc1ccccc1 (stereo not shown) [Example 216, 3-Benzo[1,3]dioxol-5-yl-4-benzyl-5-hydroxy-5-o-tolyl-5H-furan-2-one] |  | 8000 nM | 290 nM |  |  |  |
| COc1cccc(C2(O)OC(=O)C(c3ccc4c(c3)OCO4)=C2Cc2ccccc2)c1 (stereo not shown) [Example 220, 3-Benzo[1,3]dioixol-5-yl-4-benzyl-5-hydroxy-5-(3-methoxyphenyl)-5H-furan-2-one] |  | 1500 nM | 300 nM |  |  |  |
| COc1ccc(C2(O)OC(=O)C(c3ccc4c(c3)OCO4)=C2Cc2ccc(SC)cc2)cc1 (stereo not shown) [Example 236, 3-Benzo[1,3]dioxol-5-yl-5-hydroxy-5-(4-methoxyphenyl)-4-(4-methylsulfanylbenzyl)-5H-furan-2-one] | 316 nM |  | 230 nM |  |  |  |
| COc1ccc(C2(O)OC(=O)C(c3ccc4c(c3)OCO4)=C2Cc2ccccc2)c(OC)c1 (stereo not shown) [Example 241, 3-Benzo[1,3]dioxol-5-yl-4-benzyl-5-(2,4-dimethoxyphenyl)-5-hydroxy-5H-furan-2-one] | 631 nM |  | 35 nM |  |  |  |
| C=CCOc1cc(OC)ccc1C1(O)OC(=O)C(c2ccc3c(c2)OCO3)=C1Cc1ccccc1 (stereo not shown) [Example 329, 3-Benzo[1,3]dioxol-5-yl-5-hydroxy-5-(2-allyloxy-4-methoxy-phenyl)-4-benzyl-5H-furan-2one] |  | 110 nM | 110 nM |  |  |  |
